The assay addresses Cbl-b protein and UbcH5B-Ub (Homo sapiens (Human), UniProt Q13191). Kind of assay: Cbl-b activity assay (HTRF, interaction between Cbl-b protein and UbcH5B-Ub). The format is biochemical. The conditions noted are these: inhibition of interaction between Biotin-Cbl-b protein and Eu-Ubquitin-UbcH5B, HTRF signal 665 nm/615 nm. As to the method:
Experiment purpose: Testing of inhibitory activity of compounds on the interaction between Cbl-b protein and UbcH5B-Ub
Experimental method: Eu-Ubquitin-UbcH5B was prepared by incubating Eu-Ubquitin (Cisbio) with UbcH5B (ENZO), E1 (ENZO) at 37° C. for 4 hours. Eu-Ubquitin-UbcH5B was aliquoted and stored at −80° C. Cbl-b activity assay was performed in 384-well plates (Perkin Elmer). 100 nL of 3-fold serial dilutions of compounds (final concentration 10 μM-0.5 nM, starting concentration 10 μM, 3-fold dilution, 10 points, 10th point being 0.5 nM) and 5 μL of 50 nM Biotin-Cbl-b protein (Sigma) were incubated for 1 hour at room temperature, and the reaction buffer was 50 mM HEPES pH 7.0 (Gibco), 100 mM NaCl (Sigma), 0.01% Triton X-100 (Sigma), 0.01% BSA (Sigma) and 1 mM DTT (Invitrogen). 5 μL of Src mixed solution (40 nM Src (R&D), 2 mM ATP (Sigma), 10 mM MgCl2 (Sigma)) was added to the reaction plate and incubated at room temperature for 3 hours. 10 μL of detection solution (12.5 nM Strepdividin-XL665 (Cisbio), 500 nM Eu-Ubquitin-UbcH5B, […] (Invitrogen), 0.004% BSA (Sigma)) was added to the reaction plate, incubated overnight at room temperature, and the HTRF signal (665 nm/615 nm) was read on Envision (Perkin Elmer). IC50 was calculated using IDBS XLfit.

Cbl-b protein and UbcH5B-Ub, sequence (Q13191 whole entry, species assumed): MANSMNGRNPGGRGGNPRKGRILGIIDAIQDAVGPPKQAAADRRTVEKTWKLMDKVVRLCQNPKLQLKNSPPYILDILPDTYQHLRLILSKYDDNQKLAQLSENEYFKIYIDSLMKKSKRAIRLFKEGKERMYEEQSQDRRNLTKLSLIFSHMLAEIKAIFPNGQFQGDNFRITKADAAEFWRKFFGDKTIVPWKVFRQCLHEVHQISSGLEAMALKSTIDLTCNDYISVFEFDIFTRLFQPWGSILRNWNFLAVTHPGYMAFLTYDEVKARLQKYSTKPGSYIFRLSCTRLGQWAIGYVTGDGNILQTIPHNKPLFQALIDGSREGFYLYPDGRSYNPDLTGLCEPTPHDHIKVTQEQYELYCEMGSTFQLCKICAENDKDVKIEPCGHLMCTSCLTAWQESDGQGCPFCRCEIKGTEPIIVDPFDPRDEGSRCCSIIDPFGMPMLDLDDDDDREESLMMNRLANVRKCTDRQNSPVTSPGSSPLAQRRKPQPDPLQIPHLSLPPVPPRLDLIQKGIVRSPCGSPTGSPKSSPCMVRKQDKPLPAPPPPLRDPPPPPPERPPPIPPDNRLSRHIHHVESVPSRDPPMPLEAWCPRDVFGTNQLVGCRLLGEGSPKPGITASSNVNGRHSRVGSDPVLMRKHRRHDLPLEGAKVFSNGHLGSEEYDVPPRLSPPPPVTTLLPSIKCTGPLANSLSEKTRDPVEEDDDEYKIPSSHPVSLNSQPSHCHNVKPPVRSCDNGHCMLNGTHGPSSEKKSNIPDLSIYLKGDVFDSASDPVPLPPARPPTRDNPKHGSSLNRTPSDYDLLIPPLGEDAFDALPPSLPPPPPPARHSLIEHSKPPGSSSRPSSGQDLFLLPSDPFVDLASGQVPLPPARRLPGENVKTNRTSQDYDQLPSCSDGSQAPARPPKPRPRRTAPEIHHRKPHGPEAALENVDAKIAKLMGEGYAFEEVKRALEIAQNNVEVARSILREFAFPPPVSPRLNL

Take `CC1CC(c2cccc(-c3cnc4sc(CN5CCC[C@H](C)C5)cn4c3=O)c2)(c2nncn2C)C1` (stereo partly drawn) [Compound 59, (S)-6-(3-(3-methyl-1-(4-methyl-4H-1,2,4-triazol-3-yl)cyclobutyl)phenyl)-2-((3-methylpiperidin-1-yl)methyl)-5H-thiazolo[3,2-a]pyrimidin-5-one]: inhibition was half-maximal at 43.1 nM (IC50).

Regarding `CC1CC(c2cccc(-c3cnc4c(C5CC5)cc(CN5CCC[C@H](C)C5)cn4c3=O)c2)(c2nncn2C)C1` (stereo partly shown) [Compound 13], the IC50 (commonly the concentration needed to halve the response being measured) came to 31.9 nM.

With `Cc1cc(CN2CCC[C@H](C)C2)cc2c(=O)c(-c3cccc(C4(c5nncn5C)CC(F)(F)C4)c3)coc12` [Compound 73, (S)-3-(3-(3,3-difluoro-1-(4-methyl-4H-1,2,4-triazol-3-yl)cyclobutyl)phenyl)-8-methyl-6-((3-methylpiperidin-1-yl)methyl)-4H-chromen-4-one], half-maximal inhibition (IC50) was put at 64.9 nM.

For the molecule `CC1CC(c2cccc(-c3cnc4c(Cl)cc(CN5CCC[C@H](C)C5)cn4c3=O)c2)(c2nncn2C)C1` (stereo partly shown) [Compound 10], the IC50 was found to be 42.9 nM.

The molecule `C[C@H]1CCCN(Cc2cc(C(F)(F)F)c3ncc(-c4cccc(C(c5nncn5C)C5CC5)c4)c(=O)n3c2)C1` (stereo partly drawn) [Compound 63, 3-(3-(cyclopropyl(4-methyl-4H-1,2,4-triazol-3-yl)methyl)phenyl)-7-(((S)-3-methylpiperidin-1-yl)methyl)-9-trifluoromethyl-4H-pyrido[1,2-a]pyrimidin-4-one] gave an IC50 of 41.6 nM.

In turn, `CC1CC(c2cncc(-c3coc4c(C5CC5)cc(CN5CCC[C@H](C)C5)cc4c3=O)c2)(c2nncn2C)C1` (stereo partly drawn) [Compound 75, (S)-8-cyclopropyl-3-(5-(3-methyl-1-(4-methyl-4H-1,2,4-triazol-3-yl)cyclobutyl)pyridin-3-yl)-6-((3-methylpiperidin-1-yl)methyl)-4H-chromen-4-one] registered an IC50 of 7.4 nM.

For the molecule `Cc1cc(CN2CCC[C@H](C)C2)cc2c(=O)c(-c3cccc(C(C)(C)c4nncn4C)c3)coc12` [Compound 67, (S)-8-methyl-3-(3-(2-(4-methyl-4H-1,2,4-triazol-3-yl)propan-2-yl)phenyl)-6-((3-methylpiperidin-1-yl)methyl)-4H-chromen-4-one], inhibition was half-maximal at 96.4 nM (IC50).

Consider `C[C@H]1CCCN(Cc2cc(C(F)(F)F)c3ncc(-c4cccc(C5(Cc6nncn6C)COC5)c4)c(=O)n3c2)C1` [Compound 5], for which 450 nM corresponded to half-maximal inhibition (IC50).

`Cc1cc(CN2CCC(F)(F)[C@H](C)C2)cc2c(=O)c(-c3cccc(C(F)(c4nncn4C)C4CC4)c3)coc12` (stereo partly drawn) [Compound 129, 3-(3-(cyclopropylfluoro(4-methyl-4H-1,2,4-triazol-3-yl)methyl)phenyl)-6-(((R)-4,4-difluoro-3-methylpiperidin-1-yl)methyl)-8-methyl-4H-chromen-4-one]: it took 17.8 nM to reach half-maximal inhibition (IC50).

On to `Cc1cc(CN2CCC[C@H](C)C2)cc2c(=O)c(-c3cccc([C@@](F)(c4nncn4C)C4CC4)c3)coc12` [Compound 120-P2, 3-(3-((R)-cyclopropylfluoro(4-methyl-4H-1,2,4-triazol-3-yl)methyl)phenyl)-8-methyl-6-(((S)-3-methylpiperidin-1-yl)methyl)-4H-chromen-4-one], for which 7.8 nM corresponded to half-maximal inhibition (IC50).

Regarding `CC1CC(c2cccc(-c3cnc4c(C(F)(F)F)cc(CN5CCN(C)C[C@@H]5C(C)C)cn4c3=O)c2)(c2nncn2C)C1` (stereo partly shown) [Compound 89], the IC50 was found to be 41.6 nM.

`Cc1cc(CN2CCN(C)C[C@@H]2C(C)C)cc2c(=O)c(-c3cccc(C4(c5nncn5C)CC(C)C4)c3)coc12` (stereo partly shown) [Compound 88] gave an IC50 of 32.7 nM.

Consider `CC1CC(c2cccc(-c3cnc4c(C(F)(F)F)cc(CN5CC6CCC5C6)cn4c3=O)c2)(c2nncn2C)C1` (stereo not shown) [Compound 17], for which the IC50 turned out to be 167 nM.

For the molecule `CC1CC(c2cccc(-c3cnc4c(Br)cc(CN5CCC[C@H](C)C5)cn4c3=O)c2)(c2nncn2C)C1` (stereo partly shown) [Compound 14], the IC50 was determined as 29.3 nM.

`Cc1cc(CN2CCC[C@H](C)C2)cn2c(=O)c(-c3cccc(C4(c5nncn5C)CC(C)C4)c3)cnc12` (stereo partly shown) [Compound 11] gave an IC50 of 31.2 nM.

In the case of `CC1CC(c2cccc(-c3coc4c(C5CC5)cc(CN5CCC[C@H](C)C5)cc4c3=O)c2)(c2nncn2C)C1` (stereo partly drawn) [Compound 74, (S)-8-cyclopropyl-3-(3-(3-methyl-1-(4-methyl-4H-1,2,4-triazol-3-yl)cyclobutyl)phenyl)-6-((3-methylpiperidin-1-yl)methyl)-4H-chromen-4-one], the IC50 stood at 19.1 nM.

`COc1cc(CN2CCC[C@H](C)C2)cn2c(=O)c(-c3cccc(C4(c5nncn5C)CC(C)C4)c3)cnc12` (stereo partly shown) [Compound 3] came in with an IC50 of 296 nM.

Molecule `Cc1cc(CN2CCC[C@H](C)C2)cc2c(=O)c(-c3cccc([C@](F)(c4nncn4C)C4CC4)c3)coc12` [Compound 120-P1] yielded an IC50 of 212 nM.

As for `CC1CC(c2cccc(-c3cnc4ccc(CN5CCC[C@H](C)C5)cn4c3=O)c2)(c2nncn2C)C1` (stereo partly drawn) [Compound 1, 3-[3-[3-methyl-1-(4-methyl-4H-1,2,4-triazol-3-yl)cyclobutyl]phenyl]-7-[[(3S)-3-methyl-1-piperidyl]methyl]pyrido[1,2-a]pyrimidin-4-one], the IC50 is 76.6 nM.

As for `Cc1cc(CN2CCC[C@H](C)C2)cc2c(=O)c(-c3cccc(C4(c5nncn5C)CCO4)c3)coc12` (stereo partly drawn) [Compound 71, 8-methyl-3-(3-(2-(4-methyl-4H-1,2,4-triazol-3-yl)oxetan-2-yl)phenyl)-6-(((S)-3-methylpiperidin-1-yl)methyl)-4H-chromen-4-one], the IC50 turned out to be 203 nM.

With `CC1CC(c2cccc(-c3cnc4c(F)cc(CN5CCC[C@H](C)C5)cn4c3=O)c2)(c2nncn2C)C1` (stereo partly shown) [Compound 9], the half-maximal inhibitory concentration (IC50) is 130 nM.

`Cc1cc(CN2CCC[C@H](C)C2)cc2c(=O)c(-c3cccc(C(c4nncn4C)C4CC4)c3)coc12` (stereo partly drawn) [Compound 64, 3-(3-(cyclopropyl(4-methyl-4H-1,2,4-triazol-3-yl)methyl)phenyl)-8-methyl-6-(((S)-3-methylpiperidin-1-yl)methyl)-4H-chromen-4-one]: the IC50 was found to be 38.4 nM.

`Cc1cc(CN2CCC[C@H](C)C2)cc2c(=O)c(-c3cc(C(F)(F)F)cc(C4(c5nncn5C)CC(C)C4)c3)coc12` (stereo partly drawn) [Compound 66, (S)-8-methyl-3-(3-(3-methyl-1-(4-methyl-4H-1,2,4-triazol-3-yl)cyclobutyl)-5-trifluoromethylphenyl)-6-((3-methylpiperidin-1-yl)methyl)-4H-chromen-4-one] showed an IC50 of 88.9 nM.

As for `CC1CC(c2cccc(-c3cnc4c(C(F)(F)F)cc(CN5CCO[C@H](C)C5)cn4c3=O)c2)(c2nncn2C)C1` (stereo partly shown) [Compound 4], half-maximal inhibition (IC50) required 268 nM.

`CCc1cc(CN2CCC[C@H](C)C2)cn2c(=O)c(-c3cccc(C4(c5nncn5C)CC(C)C4)c3)cnc12` (stereo partly shown) [Compound 12] gave an IC50 of 63.9 nM.

Values taken from patent publication US20250042896A1, “POLYCYCLIC COMPOUND AS CBL-B INHIBITOR” (HAINAN SIMCERE ZAIMING PHARMACEUTICAL CO., LTD., priority 2021, published 2025).
